# Measurements published in US20250353873A1, “COMPOUNDS AND METHODS FOR MODULATING APOE EXPRESSION” (Ionis Pharmaceuticals, Inc., priority 2024, published 2025).
# pIC50: −log10 of the molar value. Strand notation (5' to 3'): a small letter for the sugar, then the base; units joined by * are phosphorothioate-linked, units joined directly phosphodiester-linked; [ ] holds rarer units or linkages, { } end groups; capitals alone tell only the bases. [ms] = mesyl phosphoramidate linkage; e = 2'-O-(2-methoxyethyl) (MOE); k = constrained ethyl (cEt); [5mC] = 5-methylcytosine; d = 2'-deoxy (DNA)
# Experiments:
# BJAB cells = conditions: known behaviour in the assay; cited from earlier work
# human APOE RNA [1] = assay: Activity in APOE C57BL/6NTac-Apoeem7250 knock-in mice, single ICV bolus, 16 weeks (Example 12); format: in vivo; conditions: single ICV bolus 300 μg, 16 weeks post treatment, normalized to mouse Ppia
# Method in brief: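 A single 300 μg intracerebroventricular dose was given, with PBS-treated mice as reference; cortical and spinal cord tissue was taken 16 weeks later. RT-qPCR quantified human APOE RNA, Ppia-normalized, expressed relative to PBS animals (% control).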
# human APOE RNA [2] = assay: Activity in APOE C57BL/6NTac-Apoeem7250 knock-in mice, single ICV bolus, 2 weeks (Example 9); format: in vivo; conditions: single ICV bolus 300 μg
# Procedure: Modified oligonucleotides described above were tested in the APOE knock-in mouse model C57BL/6NTac-Apoeem7250_B-A02(APOE)Tac, a heterozygous APOE mouse model. APOE knock-in mice used in this study express the full-length human APOE gene knocked into the mouse locus. Humanization of APOE gene was done via CRISPR/Cas-9-mediated gene editing, allowing for generation of a model with constitutive expression of human APOE gene. Targeting strategy was based on NCBI transcripts NM_009696.4 (mouse) and NM_000041.4 (human). Mouse genomic sequence from exon 1 to exon 4 (including the 5′ and 3′ UTRs) was replaced with the human counterpart from 141 bp upstream of exon 1 to 28 bp downstream of exon 4. A plasmid allowing expression of Cas9 mRNA, specific gRNA, and the puromycin resistance cassette, and a plasmid containing the homology regions of the mouse APOE gene, and the replaced human region were co-transfected into the Taconic Biosciences C57BL/6N Tac ES cell line. Homologous recombination clones were isolated using positive puromycin selection, and humanized allele was obtained after Cas9-mediated gene editing. C57BL/6NTac-Apoeem7250_B-A02(APOE)Tac mice were used in the in vivo experiments described below.
# APOE C57BL/6NTac-Apoeem7250 knock-in mice were divided into groups of 3 mice each. Each mouse received a single ICV bolus of 300 μg of modified oligonucleotide. A group of 3 mice received a single ICV bolus with PBS as a negative control.
# Two weeks post treatment, mice were sacrificed and RNA was extracted from cortical brain tissue and spinal cord for quantitative real-time RT-PCR analysis of RNA expression of APOE using human primer probe set RTS3073 (described herein above). APOE RNA levels were normalized to mouse Ppia. Mouse Ppia was amplified using primer probe set m_cyclo24 (described herein above). Results are presented as percent human APOE RNA relative to the amount of human APOE RNA in PBS treated animals, (% control).
# human APOE RNA [3] = assay: Activity in APOE C57BL/6NTac-Apoeem7250 knock-in mice, single ICV bolus, 8 weeks (Example 11); format: in vivo; conditions: single ICV bolus 300 μg, 8 weeks post treatment, normalized to mouse Ppia
# Method in brief: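 Cortical and spinal cord human APOE RNA quantified by RT-qPCR 8 weeks after a single 300 μg ICV dose in knock-in mice, Ppia-normalized. Values are percent of levels in PBS-treated animals.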
# human APOE RNA [4] = assay: Activity in APOE 1549 knock-in mice, single ICV bolus, 2 weeks (Example 7); format: in vivo; conditions: single ICV bolus of 300 μg, two weeks post treatment, Table 17
# Procedure: Modified oligonucleotides described above were tested in APOE knock-in mice.
# APOE knock-in mice (model 41549) were obtained from Taconic Biosciences. APOE knock-in mice were divided into groups of 2 mice each. Each mouse received a single intracerebroventricular (ICV) bolus of 300 μg of modified oligonucleotide. A group of 4 mice received a single ICV bolus with PBS as a negative control.
# Two weeks post treatment, mice were sacrificed and RNA was extracted from cortical brain tissue and spinal cord for quantitative real-time RT-PCR analysis of RNA expression of APOE using primer probe set RTS3073 (described herein above). APOE RNA levels were normalized to mouse Ppia. Mouse Ppia was amplified using primer probe set m_cyclo24 (forward sequence TCGCCGCTTGCTGCA, designated herein as SEQ ID NO: 16; reverse sequence ATCGGCCGTGATGTCGA, designated herein as SEQ ID NO: 17; probe sequence […], designated herein as SEQ ID NO: 18). Results are presented as percent human APOE RNA relative to the amount of human APOE RNA in PBS treated animals, (% control). Each experiment is identified in separate tables below.
# human APOE RNA [5] = assay: Dose-dependent inhibition of human APOE RNA in HepG2 cells, electroporation, 24 hours (Example 6); format: cell-based
# Method in brief: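 IC50 derived from APOE RNA levels, given as percent of untreated control after GAPDH normalization (probe sets RTS3073 and RTS104). Oligonucleotides were delivered at multiple concentrations by electroporation into HepG2 cells seeded at 50,000 per well.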
# human APOE RNA [6] = assay: Activity in APOE C57BL/6NTac-Apoeem7250 knock-in mice, single ICV bolus, 4 weeks (Example 10); format: in vivo; conditions: C57BL/6NTac-Apoeem7250 knock-in mice, single ICV bolus 300 μg
# Method in brief: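 Human APOE RNA, quantified by real-time RT-PCR with RTS3073 and normalized to mouse Ppia, was read in cortical brain and spinal cord 4 weeks post dosing. Dosing was a single ICV bolus of 300 μg per knock-in mouse; values are % of PBS-treated animals.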
substance,measurement,setting,value
"Compound No. 785674: kk-9-eeekk cEt gapmer with MOE modifications, TATTTCTGCTCCAGGT, internal standard (sugars from the 5' end k2 d9 e3 k2, backbone and methylation of C not given here)",responder class for CCL22 release in the BJAB assay (internal standard),BJAB cells,high responder (inflammatory)
"Compound No. 735746: 3-10-3 cEt gapmer, TTCAAGGTGAACTGTT, internal standard (sugars from the 5' end k3 d10 k3, backbone and methylation of C not given here)",responder class for CCL22 release in the BJAB assay (internal standard),BJAB cells,moderate responder (mildly inflammatory)
"1693102: 6-10-4 MOE gapmer CTTGGTGAATCTTTATTAAA, linkages ssssoszzzssssszssss (e[5mC]*eT*eT*eG*eGeT*dG[ms]dA[ms]dA[ms]dT*d[5mC]*dT*dT*dT*dA[ms]dT*eT*eA*eA*eA) [compound 1693102]",APOE RNA (% control) Cortex,human APOE RNA [1]; cortex,69 % control
same,APOE RNA (% control) Spinal Cord,human APOE RNA [1]; spinal cord,41 % control
same,APOE RNA (% control) Cortex,human APOE RNA [2]; Cortex,51 % control
same,APOE RNA (% control) Spinal Cord,human APOE RNA [2]; Spinal Cord,51 % control
same,APOE RNA (% control) Cortex,human APOE RNA [3]; cortex,58 % control
same,APOE RNA (% control) Spinal Cord,human APOE RNA [3]; spinal cord,43 % control
same,APOE RNA (% control) Cortex,human APOE RNA [4]; cortex,60 % control
same,APOE RNA (% control) Spinal Cord,human APOE RNA [4]; spinal cord,45 % control
same,pIC50,human APOE RNA [5],5.93
same,APOE RNA (% UTC),human APOE RNA [5]; 5 nM,89 % UTC
same,APOE RNA (% UTC),human APOE RNA [5]; 13 nM,95 % UTC
same,APOE RNA (% UTC),human APOE RNA [5]; 33 nM,87 % UTC
same,APOE RNA (% UTC),human APOE RNA [5]; 82 nM,92 % UTC
same,APOE RNA (% UTC),human APOE RNA [5]; 205 nM,80 % UTC
same,APOE RNA (% UTC),human APOE RNA [5]; 512 nM,64 % UTC
same,APOE RNA (% UTC),"human APOE RNA [5]; 1,280 nM",48 % UTC
same,APOE RNA (% UTC),"human APOE RNA [5]; 3,200 nM",32 % UTC
same,APOE RNA (% UTC),"human APOE RNA [5]; 8,000 nM",22 % UTC
same,APOE RNA (% UTC),"human APOE RNA [5]; 20,000 nM",10 % UTC
same,APOE RNA (% control) Cortex,human APOE RNA [6]; 4 weeks (Table 21),61 % control
same,APOE RNA (% control) Cortex,human APOE RNA [6]; 4 weeks (Table 22),55 % control
same,APOE RNA (% control) Spinal Cord,human APOE RNA [6]; 4 weeks (Table 21),48 % control
same,APOE RNA (% control) Spinal Cord,human APOE RNA [6]; 4 weeks (Table 22),72 % control
